In brackets after ≈: the same amount, converted by molar mass. Some results are limits rather than exact numbers.

Here are results for three compounds from patent US5834453A, “Methods for the manufacture and use of antimicrobial sterol conjugates” (Lehigh University, priority 1997, dated 1998).

Data set [1] has as its system C. albicans (90028). Nature of the data set: MIC, micro-broth dilution. It is filed as cell-based. The conditions noted are these: Candida albicans, 35° C., 24 hours, read-out: ANTIMICROBIAL ACTIVITY (MIC). As for the experimental part: (§1) The antimicrobial activity of the compounds according to the present invention were compared with the results obtained for squalamine as reported in Proc. Nat. Acad. Sci. USA 90:1354 (1993), supra, the disclosure of which is incorporated in toto herein. The data reported in the following table is the minimum inhibitory concentration (MIC) required for complete inhibition of microbial growth. The MIC was determined utilizing known micro-broth dilution methods in which inocula of 10^6 /ml of the test organism were incubated in 0.5× trypticase soy broth at 35° C. for 24 hours. MIC's were also tested under various pH conditions, with calcium chloride or magnesium chloride, or with immobilized horse serum.
(§2) The numbers in parentheses contained in the table correspond to accession numbers with the American Type Culture Collection (reference strains were either obtained from the American Type Culture Collection or from the Microbiology Laboratory at Memorial Sloan-Kettering Cancer Center; Bacterial strains were maintained on Columbia 5% sheep blood agar plates, and fungi were maintained on Sabouraud Dextrose agar plates).

In data set [2] the test system is C. neoformans (M68979). Nature of the data set: MIC, micro-broth dilution. It is filed as cell-based. The settings on record: Cryptococcus neoformans, 24 h, read-out: ANTIMICROBIAL ACTIVITY (MIC). The protocol: as §1, §2
(Dilution methods test growth across graded concentrations, often in twofold steps.)

Data set [3] deals with E. coli (25922). Nature of the data set: MIC, micro-broth dilution. It is filed as cell-based. The conditions noted are these: Escherichia coli, 35° C., 24 hours, read-out: ANTIMICROBIAL ACTIVITY (MIC). As for the experimental part: as §1, §2
In data set [4] the test system is P. aeruginosa (2853). Nature of the data set: MIC, micro-broth dilution. It counts as cell-based. The settings on record: Pseudomonas aeruginosa, 24 h, read-out: ANTIMICROBIAL ACTIVITY (MIC). The protocol:
as §1, §2

Data set [5] deals with P. vulgaris (13315). Nature of the data set: MIC, micro-broth dilution. It counts as cell-based. The conditions noted are these: Proteus vulgaris, 35° C., 24 hours, read-out: ANTIMICROBIAL ACTIVITY (MIC). As for the experimental part:
as §1, §2

Data set [6] deals with S. aureus (25923). Nature of the data set: MIC, micro-broth dilution. It counts as cell-based. The settings on record: Staphylococcus aureus, 35° C., 24 hours, read-out: ANTIMICROBIAL ACTIVITY (MIC). As for the experimental part:
as §1, §2

Data set [7] deals with S. aureus (29213). Nature of the data set: MIC, micro-broth dilution. It is filed as cell-based. The conditions noted are these: Staphylococcus aureus, 24 h, read-out: ANTIMICROBIAL ACTIVITY (MIC). As for the experimental part: as §1, §2
For data set [8], the system named is S. epidermidis (12228). Nature of the data set: MIC, micro-broth dilution. It counts as cell-based. The settings on record: Staphylococcus epidermidis, 35° C., 24 hours, read-out: ANTIMICROBIAL ACTIVITY (MIC). As for the experimental part: as §1, §2
In data set [9] the test system is S. marcescens (13880). Nature of the data set: MIC, micro-broth dilution. It is filed as cell-based. The conditions noted are these: Serratia marcescens, 24 h, read-out: ANTIMICROBIAL ACTIVITY (MIC). As for the experimental part: as §1, §2
Data set [10] is described as follows: Hemolytic activity, minimal hemolytic concentration (MHC). It is filed as cell-based, sheep. The conditions noted are these: for MCC at 24 h: sheep, red blood cells. The protocol:
Hemolytic activity of the squalamine mimics according to the present invention were also studied by incubating sheep red blood cells for 24 hours at 37° C. in saline (final concentration of 0.5%) with or without respective concentrations of the squalamine mimics. The minimal hemolytic concentration (MHC) was determined as the lowest concentration of a mimic that raised visible hemolysis.

Data set [11] relates to A. fumigatus (H1120). Nature of the data set: MIC, micro-broth dilution. The conditions noted are these: Aspergillus fumigatus, 35° C., 24 hours, read-out: ANTIMICROBIAL ACTIVITY (MIC). It counts as cell-based. As for the experimental part: as §1, §2
Data set [12] relates to A. fumigatus (H29709). Nature of the data set: MIC, micro-broth dilution. It counts as cell-based. The settings on record: Aspergillus fumigatus, 35° C., 24 hours, read-out: ANTIMICROBIAL ACTIVITY (MIC). The protocol: as §1, §2
In data set [13] the test system is C. neoformans (90012). Nature of the data set: MIC, micro-broth dilution. It counts as cell-based. The settings on record: Cryptococcus neoformans, 24 h, read-out: ANTIMICROBIAL ACTIVITY (MIC). As for the experimental part:
as §1, §2

The test system of data set [14] is E. cloacae (13047). Nature of the data set: MIC, micro-broth dilution. It is filed as cell-based. The settings on record: Enterobacter cloacae, 35° C., 24 hours, read-out: ANTIMICROBIAL ACTIVITY (MIC). The protocol:
as §1, §2

For data set [15], the system named is E. faecalis (29212). Nature of the data set: MIC, micro-broth dilution. It is filed as cell-based. The conditions noted are these: Enterococcus faecalis, 35° C., 24 hours, read-out: ANTIMICROBIAL ACTIVITY (MIC). The protocol:
as §1, §2

For data set [16], the system named is E. faecium (T6480-9). Nature of the data set: MIC, micro-broth dilution. It counts as cell-based. The conditions noted are these: Enterococcus faecium, 35° C., 24 hours, read-out: ANTIMICROBIAL ACTIVITY (MIC). The protocol:
as §1, §2

In data set [17] the test system is K. pneumoniae (13883). Nature of the data set: MIC, micro-broth dilution. It counts as cell-based. The settings on record: Klebsiella pneumoniae, 24 h, read-out: ANTIMICROBIAL ACTIVITY (MIC). The protocol:
as §1, §2

Data set [18] has as its system P. aeruginosa (10145). Nature of the data set: MIC, micro-broth dilution. It counts as cell-based. The settings on record: Pseudomonas aeruginosa, 35° C., 24 hours, read-out: ANTIMICROBIAL ACTIVITY (MIC). The protocol: as §1, §2
Data set [19] has as its system S. agalactiae (13813). Nature of the data set: MIC, micro-broth dilution. It is filed as cell-based. The settings on record: Streptococcus agalactiae, 35° C., 24 hours, read-out: ANTIMICROBIAL ACTIVITY (MIC). The protocol: as §1, §2
For data set [20], the system named is S. aureus (H20809). Nature of the data set: MIC, micro-broth dilution. It counts as cell-based. The settings on record: Staphylococcus aureus, 24 h, read-out: ANTIMICROBIAL ACTIVITY (MIC). The protocol:
as §1, §2

Data set [21] concerns S. pneumoniae (6305). Nature of the data set: MIC, micro-broth dilution. It counts as cell-based. The conditions noted are these: Streptococcus pneumoniae, 35° C., 24 hours, read-out: ANTIMICROBIAL ACTIVITY (MIC). The protocol: as §1, §2
Data set [22] has as its system S. pyrogenes (19615). Nature of the data set: MIC, micro-broth dilution. It is filed as cell-based. The settings on record: 24 h, read-out: ANTIMICROBIAL ACTIVITY (MIC). The protocol:
as §1, §2

Consider `C[C@H](C(=O)NCCCNCCCCNCCCN)[C@H]1CC[C@H]2[C@@H]3CC=C4C[C@@H](O)CC[C@]4(C)[C@H]3CC[C@]12C` [SM-1, 23,24-Bisnor-3β-ol-5-cholenic acid 3-ol spermine conjugate], for which the MIC (commonly the smallest concentration in the dilution series that meets the test's criterion for growth inhibition) in data set [1] is 100 µg/mL (≈ 188 µM); in data set [2], 6.25 µg/mL (≈ 11.8 µM); in [3] it was 12.5 µg/mL (≈ 23.5 µM); in data set [4], 1.56 µg/mL (≈ 2.94 µM); in data set [5], 25 µg/mL (≈ 47.1 µM); in data set [6], 3.13 µg/mL (≈ 5.9 µM). Besides, the minimum inhibitory concentration (MIC) is 6.25 µg/mL (≈ 11.8 µM) in data set [7], 1.56 µg/mL (≈ 2.94 µM) in data set [8] and greater than 100 µg/mL in data set [9]. In data set [10] (sheep red blood cells, 24 hours at 37° C. in saline), this compound displayed a minimal hemolytic concentration (MHC) at 24 h of 100 µg/mL.

For `C[C@H](C(=O)NCCNCCNCCN)[C@H]1CC[C@H]2[C@@H]3CC=C4C[C@@H](O)CC[C@]4(C)[C@H]3CC[C@]12C` [SM-5], the minimal inhibitory concentration (MIC) in data set [11], in data set [12], in [1], in [13], in data set [2] and in data set [14] was greater than 100 µg/mL throughout. The MIC in data set [3] is 100 µg/mL (≈ 211 µM); in [15], greater than 100 µg/mL; in data set [16], greater than 100 µg/mL; in data set [17] it was greater than 100 µg/mL; in data set [18] it was 25 µg/mL (≈ 52.7 µM); in [4], 25 µg/mL (≈ 52.7 µM). Further, the MIC was greater than 100 µg/mL in data set [5]; greater than 100 µg/mL in [19]; 50 µg/mL (≈ 105 µM) in data set [6]; 100 µg/mL (≈ 211 µM) in data set [7]; greater than 100 µg/mL in data set [20]; 25 µg/mL (≈ 52.7 µM) in data set [8]. In addition, the MIC is greater than 100 µg/mL in data set [9], greater than 100 µg/mL in data set [21] and 6.25 µg/mL (≈ 13.2 µM) in data set [22]. Moreover, the MCC at 24 h in [10] is greater than 100 µg/mL.

For `C[C@H](CCC(=O)NCCCNCCCCNCCCN)[C@H]1CC[C@H]2[C@@H]3CC[C@@H]4C[C@H](OS(=O)(=O)O)CC[C@]4(C)[C@H]3C[C@H](OS(=O)(=O)O)[C@]12C` [SM-8], the minimal inhibitory concentration (MIC) in [11] was greater than 100 µg/mL; in data set [12], greater than 100 µg/mL; in [1], 100 µg/mL (≈ 136 µM); in [13], 50 µg/mL (≈ 67.8 µM); in data set [2], 50 µg/mL (≈ 67.8 µM); in [14], greater than 100 µg/mL. Also, the minimal inhibitory concentration (MIC) was greater than 100 µg/mL in data set [3]; greater than 100 µg/mL in data set [15]; 100 µg/mL (≈ 136 µM) in data set [16]; 50 µg/mL (≈ 67.8 µM) in [17]; 100 µg/mL (≈ 136 µM) in [18]; 25 µg/mL (≈ 33.9 µM) in data set [4]. Further, the minimal inhibitory concentration (MIC) was determined as 50 µg/mL (≈ 67.8 µM) in [5]; 50 µg/mL (≈ 67.8 µM) in data set [19]; 25 µg/mL (≈ 33.9 µM) in data set [6]; 25 µg/mL (≈ 33.9 µM) in data set [7]; 25 µg/mL (≈ 33.9 µM) in [20]; 25 µg/mL (≈ 33.9 µM) in data set [8]. Further, the MIC is greater than 100 µg/mL in [9], 50 µg/mL (≈ 67.8 µM) in [21] and 6.25 µg/mL (≈ 8.48 µM) in data set [22]. The same compound had an MCC at 24 h in data set [10] greater than 100 µg/mL.
